pKi: −log10 of the molar value.
What was measured:
[1] = target: β2-containing nAChRs (α2β2, α3β2, α4β2, and α4β2*); design: method as in Yu et al. [2012]; conditions: ref Yu et al. [2012], read-out: Ki values range at β2-containing nAChRs; cited from earlier work
α2A adrenergic receptor = target: T1, α2A adrenergic receptor (Homo sapiens, UniProt P08913); assay: PDSP primary binding, α2A; conditions: n = 4, read-out: Inhibition (primary binding competition efficacy), α2A
T1 construct: purchased NIMH Psychoactive Drug Screening Program (PDSP)
Description: (§1) For experimental details, please refer to the Psychoactive Drug Screening Program (PDSP) web site http://pdsp.med.unc.edu/.
(§2) ^a The default concentration for primary binding experiments is 10 µM (n = 4). ^b Negative inhibition represents a stimulation of binding. ^c BZPR: Benzodiazepine Receptors (rat brain site). ^d DOR: Delta Opioid Receptor; KOR: Kappa Opioid Receptor; MOR: Mu Opioid Receptor. ^e DAT: Dopamine Transporter; NET: Norepinephrine Transporter; SERT: Serotonin Transporter. ^f NMDA: N-methyl-D-aspartate receptor.

strain TA1535 = assay: Ames test, strain TA1535; type: cell-based
Male C57 BL6/J mice = system: Male C57 BL6/J mice
Description: Male C57 BL6/J (from Jackson Laboratories) mice were used for these studies. Upon receipt at 6 weeks of age, mice were single-housed in OptiMICE ventilated cages and acclimated to the colony room for 1 week prior to beginning of the dosing regimen at 7 weeks of age.
Mice were tested in NSF on day 29 of treatment. Eighteen hours prior to behavioral testing, all food was removed from the home cage. The NSF test was carried out during a 15-min period. The test chamber consists of a rectangular (14″ × 20″ × 6″) plastic box. The chamber floor is covered with bedding (∼0.5″). At the time of testing, animals were placed in the left front corner of the chamber and two food pellets (regular chow) were placed on a laminated white paper circle (13 cm in diameter) positioned in the center of the test chamber. The latency to eat is defined by the animal holding the food with one or both paws and taking a bite of the pellet and staying in the center eating for at least 5 sec. The mice were videotaped and tapes were scored by two trained observers blind to the treatments. […] Upon completion of NSF, about 50 60 min after the pretreatment, mice were decapitated and all animals from all treatment groups except from the imipramine group were processed for collection of trunk blood and whole-brain tissue. […]

[2] = target: hERG (human ether-a-go-go-related gene) (Homo sapiens, UniProt Q12809); assay: hERG inhibition assay; conditions: in words
human α7-nAChR = target: T2, human α7-nAChR (Homo sapiens, UniProt P36544); assay: Two-electrode voltage-clamp recording in Xenopus oocytes, α7; type: cell-based
T2 construct: expressed in transfected cells; host or cells: Xenopus oocytes (cRNA injection)
Description: Xenopus oocytes were injected with cRNAs encoding human nicotinic receptor subunits (α4:β2 at 1:1 ratio or α7). Three to five days after injection, oocytes were individually placed in a custom made small volume chamber and continuously perfused with oocyte Ringer's solution (OR2; 92.5 mmol/L NaCl, 2.5 mmol/L KCl, 1 mmol/L CaCl2, 1 mmol/L MgCl2, and 5 mmol/L HEPES at pH 7.5). Drugs were delivered to the oocytes through a ValveLink8.2 computer-controlled perfusion system (Automate Scientific, Inc, Berkeley, CA). The chamber was grounded through an agar KCl bridge. The oocytes were voltage-clamped at −70 mV to measure agonist-induced currents using a GeneClamp 500B amplifier (Axon Instruments, Foster City, CA). The current signal was filtered at 20 Hz with the built-in four pole low-pass Bessel filter and digitized at 100 Hz.

σ 2 sigma receptor = assay: PDSP primary binding, σ 2; conditions: 10 µM, n = 4
Description: as §1, §2

5-HT1A = target: T3, 5-HT1A (Homo sapiens, UniProt P08908); assay: PDSP primary binding, 5-HT1A; conditions: n = 4, read-out: Inhibition (primary binding competition efficacy), 5-HT1A
T3 construct: purchased NIMH Psychoactive Drug Screening Program (PDSP)
Description: as §1, §2

σ 1 sigma receptor = assay: PDSP primary binding, σ 1; conditions: 10 µM, n = 4
Description: as §1, §2

CB1 = target: T4, CB1 (Homo sapiens, UniProt P21554); assay: PDSP primary binding, CB1; conditions: n = 4, read-out: Inhibition (primary binding competition efficacy), CB1
T4 construct: purchased NIMH Psychoactive Drug Screening Program (PDSP)
Description: as §1, §2

α2C adrenergic receptor = target: T5, α2C adrenergic receptor (Homo sapiens, UniProt P18825); assay: PDSP primary binding, α2C; conditions: n = 4, read-out: Inhibition (primary binding competition efficacy), α2C
T5 construct: purchased NIMH Psychoactive Drug Screening Program (PDSP)
Description: as §1, §2

GABAB = assay: PDSP primary binding, GABAB; conditions: 10 µM, n = 4
Description: as §1, §2

β1 adrenergic receptor = target: T6, β1 adrenergic receptor (Homo sapiens, UniProt P08588); assay: PDSP primary binding, β1; conditions: n = 4, read-out: Inhibition (primary binding competition efficacy), β1
T6 construct: purchased NIMH Psychoactive Drug Screening Program (PDSP)
Description: as §1, §2

α7 nAChR = conditions: ref Yu et al. [2012], cited from earlier work
β2 adrenergic receptor = target: T7, β2 adrenergic receptor (Homo sapiens, UniProt P07550); assay: PDSP primary binding, β2; conditions: n = 4, read-out: Inhibition (primary binding competition efficacy), β2
T7 construct: purchased NIMH Psychoactive Drug Screening Program (PDSP)
Description: as §1, §2

[3] = Metabolic stability, cryopreserved hepatocytes, human; type: in vitro ADME; conditions: 1.0E-06 M, 2 h
mGluR5 = assay: PDSP primary binding, mGluR5; conditions: 10 µM, n = 4
Description: as §1, §2

T2 sequence (P36544 23-502): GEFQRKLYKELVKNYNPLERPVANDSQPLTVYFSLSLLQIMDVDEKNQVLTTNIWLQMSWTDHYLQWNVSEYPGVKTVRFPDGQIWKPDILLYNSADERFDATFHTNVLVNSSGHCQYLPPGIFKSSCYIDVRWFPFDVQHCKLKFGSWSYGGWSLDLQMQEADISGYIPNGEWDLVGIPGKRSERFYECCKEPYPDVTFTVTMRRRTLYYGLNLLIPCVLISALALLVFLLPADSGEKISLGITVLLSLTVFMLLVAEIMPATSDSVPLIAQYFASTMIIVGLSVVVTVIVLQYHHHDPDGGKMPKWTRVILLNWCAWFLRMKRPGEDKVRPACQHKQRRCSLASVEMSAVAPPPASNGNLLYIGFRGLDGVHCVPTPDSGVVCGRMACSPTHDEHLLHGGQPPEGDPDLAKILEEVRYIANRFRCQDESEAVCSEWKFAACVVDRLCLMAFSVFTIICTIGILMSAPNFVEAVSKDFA
T4 sequence (P21554 whole entry): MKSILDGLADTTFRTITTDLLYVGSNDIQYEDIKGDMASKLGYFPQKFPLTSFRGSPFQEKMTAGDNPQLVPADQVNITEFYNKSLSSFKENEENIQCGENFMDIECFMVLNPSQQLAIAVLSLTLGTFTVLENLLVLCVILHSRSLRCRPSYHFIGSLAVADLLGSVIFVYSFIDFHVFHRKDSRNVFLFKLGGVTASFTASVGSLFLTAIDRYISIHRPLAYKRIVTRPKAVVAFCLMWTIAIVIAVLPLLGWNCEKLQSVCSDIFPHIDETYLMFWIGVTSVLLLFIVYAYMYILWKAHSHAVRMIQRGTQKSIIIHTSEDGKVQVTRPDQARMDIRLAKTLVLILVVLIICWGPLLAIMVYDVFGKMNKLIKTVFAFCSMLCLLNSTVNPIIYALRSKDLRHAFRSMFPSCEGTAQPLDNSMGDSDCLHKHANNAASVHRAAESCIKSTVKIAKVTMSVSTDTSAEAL
T1 sequence (P08913 whole entry): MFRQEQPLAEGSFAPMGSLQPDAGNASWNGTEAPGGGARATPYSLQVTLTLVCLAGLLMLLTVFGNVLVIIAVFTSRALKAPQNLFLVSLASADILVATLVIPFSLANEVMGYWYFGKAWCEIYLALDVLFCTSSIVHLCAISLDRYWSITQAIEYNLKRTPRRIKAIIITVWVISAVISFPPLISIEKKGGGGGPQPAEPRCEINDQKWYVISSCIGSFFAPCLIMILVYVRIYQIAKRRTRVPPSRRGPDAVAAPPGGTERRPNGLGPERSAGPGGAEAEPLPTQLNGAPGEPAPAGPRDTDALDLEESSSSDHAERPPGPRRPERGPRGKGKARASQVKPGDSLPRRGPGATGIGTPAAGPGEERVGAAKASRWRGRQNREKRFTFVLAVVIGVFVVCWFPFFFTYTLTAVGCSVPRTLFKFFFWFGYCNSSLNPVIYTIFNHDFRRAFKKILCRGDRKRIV
T5 sequence (P18825 whole entry): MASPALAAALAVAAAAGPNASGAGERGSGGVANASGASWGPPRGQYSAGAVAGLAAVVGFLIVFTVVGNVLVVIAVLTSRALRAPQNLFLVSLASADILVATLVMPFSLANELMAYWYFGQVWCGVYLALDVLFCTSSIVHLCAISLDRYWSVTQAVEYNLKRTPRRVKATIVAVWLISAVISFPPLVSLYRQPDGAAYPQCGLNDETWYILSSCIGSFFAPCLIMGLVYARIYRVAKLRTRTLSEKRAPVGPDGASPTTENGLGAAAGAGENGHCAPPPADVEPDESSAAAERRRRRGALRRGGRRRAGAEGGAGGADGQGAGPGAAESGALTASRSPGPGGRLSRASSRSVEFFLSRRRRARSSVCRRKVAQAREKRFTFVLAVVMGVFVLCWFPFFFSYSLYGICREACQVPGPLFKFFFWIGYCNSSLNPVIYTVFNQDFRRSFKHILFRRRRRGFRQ
hERG (human ether-a-go-go-related gene), sequence (Q12809 whole entry): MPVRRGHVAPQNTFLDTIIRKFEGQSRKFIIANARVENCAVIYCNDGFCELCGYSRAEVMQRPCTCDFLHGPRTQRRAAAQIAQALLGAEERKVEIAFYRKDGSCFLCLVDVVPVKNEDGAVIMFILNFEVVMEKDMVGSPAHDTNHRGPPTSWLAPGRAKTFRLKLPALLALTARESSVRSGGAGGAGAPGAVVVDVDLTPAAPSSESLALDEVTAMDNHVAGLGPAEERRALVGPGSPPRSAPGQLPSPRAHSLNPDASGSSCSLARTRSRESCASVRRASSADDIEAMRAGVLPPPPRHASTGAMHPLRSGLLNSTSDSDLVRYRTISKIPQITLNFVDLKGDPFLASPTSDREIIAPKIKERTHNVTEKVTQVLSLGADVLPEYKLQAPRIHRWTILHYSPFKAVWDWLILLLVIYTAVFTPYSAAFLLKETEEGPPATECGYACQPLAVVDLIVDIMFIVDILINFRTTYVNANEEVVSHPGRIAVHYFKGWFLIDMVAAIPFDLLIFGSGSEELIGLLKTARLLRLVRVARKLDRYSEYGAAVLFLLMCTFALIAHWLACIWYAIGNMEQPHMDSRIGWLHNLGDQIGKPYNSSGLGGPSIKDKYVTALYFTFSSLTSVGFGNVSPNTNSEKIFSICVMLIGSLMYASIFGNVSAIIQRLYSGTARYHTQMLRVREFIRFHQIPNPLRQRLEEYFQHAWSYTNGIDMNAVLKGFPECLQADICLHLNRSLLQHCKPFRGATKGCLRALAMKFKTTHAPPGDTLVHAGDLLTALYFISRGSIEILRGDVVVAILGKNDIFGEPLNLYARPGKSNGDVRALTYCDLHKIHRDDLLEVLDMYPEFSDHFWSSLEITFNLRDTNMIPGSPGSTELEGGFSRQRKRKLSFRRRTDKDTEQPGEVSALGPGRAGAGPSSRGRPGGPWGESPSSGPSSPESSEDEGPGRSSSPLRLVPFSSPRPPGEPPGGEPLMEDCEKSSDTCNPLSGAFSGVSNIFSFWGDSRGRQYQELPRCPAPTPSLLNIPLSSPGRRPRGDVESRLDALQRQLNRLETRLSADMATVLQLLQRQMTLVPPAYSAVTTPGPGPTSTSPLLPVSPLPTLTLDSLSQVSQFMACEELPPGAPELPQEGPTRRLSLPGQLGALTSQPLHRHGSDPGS
T3 sequence (P08908 whole entry): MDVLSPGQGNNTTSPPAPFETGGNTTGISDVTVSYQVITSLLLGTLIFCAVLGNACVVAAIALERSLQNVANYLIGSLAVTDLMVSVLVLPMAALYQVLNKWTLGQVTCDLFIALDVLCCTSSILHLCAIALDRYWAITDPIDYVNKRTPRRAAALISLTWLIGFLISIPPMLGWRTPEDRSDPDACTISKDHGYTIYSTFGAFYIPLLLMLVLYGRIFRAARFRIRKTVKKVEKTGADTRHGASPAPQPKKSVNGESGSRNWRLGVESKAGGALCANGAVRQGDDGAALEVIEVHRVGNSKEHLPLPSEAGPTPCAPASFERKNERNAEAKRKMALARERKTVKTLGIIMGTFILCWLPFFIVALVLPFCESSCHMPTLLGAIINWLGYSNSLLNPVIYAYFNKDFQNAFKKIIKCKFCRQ
T6 sequence (P08588 whole entry): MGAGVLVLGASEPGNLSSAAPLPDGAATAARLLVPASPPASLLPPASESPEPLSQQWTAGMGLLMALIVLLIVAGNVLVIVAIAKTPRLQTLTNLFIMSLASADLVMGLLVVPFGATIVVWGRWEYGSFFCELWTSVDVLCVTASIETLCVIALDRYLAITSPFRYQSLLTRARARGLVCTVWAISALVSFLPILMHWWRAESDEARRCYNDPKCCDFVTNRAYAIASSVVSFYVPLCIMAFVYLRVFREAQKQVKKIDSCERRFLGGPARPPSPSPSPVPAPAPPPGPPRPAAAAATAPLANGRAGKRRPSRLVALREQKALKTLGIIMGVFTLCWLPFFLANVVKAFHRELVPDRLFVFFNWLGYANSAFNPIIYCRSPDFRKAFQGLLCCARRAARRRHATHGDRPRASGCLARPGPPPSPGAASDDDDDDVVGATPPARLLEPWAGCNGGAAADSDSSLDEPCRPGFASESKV
T7 sequence (P07550 whole entry): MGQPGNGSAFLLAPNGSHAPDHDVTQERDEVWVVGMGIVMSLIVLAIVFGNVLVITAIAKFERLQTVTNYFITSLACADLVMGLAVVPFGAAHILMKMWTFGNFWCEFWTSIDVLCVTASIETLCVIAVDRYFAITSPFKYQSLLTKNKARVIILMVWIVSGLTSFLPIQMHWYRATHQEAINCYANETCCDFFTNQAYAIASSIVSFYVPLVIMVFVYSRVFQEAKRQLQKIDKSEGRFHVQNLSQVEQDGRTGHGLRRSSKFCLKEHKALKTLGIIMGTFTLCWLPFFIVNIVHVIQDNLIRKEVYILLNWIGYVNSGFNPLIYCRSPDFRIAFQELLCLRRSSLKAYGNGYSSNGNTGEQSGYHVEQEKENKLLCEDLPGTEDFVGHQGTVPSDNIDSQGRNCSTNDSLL

Q: With `OCCc1cc(-c2cncc(OC[C@@H]3CCN3)c2)on1` [LF-3-88, 2-[5-[5-(2(S)-azetidinylmethoxyl)-3-pyridyl]-3-isoxazolyl]ethanol] as the compound, how does the pKi [1] read?
A: 7.81 to 9.22

Q: What about the inhibition at 10 µM (α2A adrenergic receptor) of the same compound?
A: 23.1%

Q: What about the “Ames test Result” value (strain TA1535; strain TA1535 + S9, 1.0E-04 M) of the same compound?
A: Negative

Q: What about the “Ames test Result” value (strain TA1535; strain TA1535 + S9, 1.0E-05 M) of the same compound?
A: Negative

Q: What about the “Ames test Result” value (strain TA1535; strain TA1535 + S9, 5.0E-05 M) of the same compound?
A: Negative

Q: And the “Ames test Result” value (strain TA1535; strain TA1535 + S9, 5.0E-06 M)?
A: Negative

Q: What about the “Ames test Result” value (strain TA1535; strain TA1535 – S9, 1.0E-04 M) of the same compound?
A: Negative

Q: What about the “Ames test Result” value (strain TA1535; strain TA1535 – S9, 1.0E-05 M) of the same compound?
A: Negative

Q: What about the “Ames test Result” value (strain TA1535; strain TA1535 – S9, 5.0E-05 M) of the same compound?
A: Negative

Q: What about the “Ames test Result” value (strain TA1535; strain TA1535 – S9, 5.0E-06 M) of the same compound?
A: Negative

Q: And the “mutagenic potential (Ames), TA1535” value (strain TA1535; with or without S9, 5, 10, 50, or 100 μmol/L)?
A: negative

Q: What about the “treatment effect on body weight” value (Male C57 BL6/J mice; 4-week administration) of the same compound?
A: did not find a significant treatment effect

Q: And the “behavioral changes / tolerability in NSF paradigm” value (Male C57 BL6/J mice; 28 days oral administration, 5 and 10 mg/kg)?
A: No obvious behavioral changes

Q: What about the “profile in hERG inhibition assay” value [2] of the same compound?
A: favorable profile

Q: And the “agonist activity at α7-nAChRs in oocytes” value (human α7-nAChR; 20 μmol/L)?
A: lack of agonist activity

Q: And the “effect at α7-nAChRs in oocytes” value (human α7-nAChR; concentrations as high as 20 μmol/L)?
A: No effect

Q: And the “antagonist activity at α7-nAChR in oocytes” value (human α7-nAChR; responses to 100 μmol/L ACh)?
A: weak if any antagonist activity

Q: What about the “Inhibition (primary binding competition efficacy), σ 2” value (σ 2 sigma receptor) of the same compound?
A: 11.5%

Q: And the inhibition at 10 µM (5-HT1A)?
A: 4.2%

Q: And the “Inhibition (primary binding competition efficacy), σ 1” value (σ 1 sigma receptor)?
A: 15.8%

Q: And the inhibition at 10 µM (CB1)?
A: 5.1%

Q: And the inhibition at 10 µM (α2C adrenergic receptor)?
A: 17.2%

Q: And the “Inhibition (primary binding competition efficacy), GABAB” value (GABAB)?
A: 1.1%

Q: And the inhibition at 10 µM (β1 adrenergic receptor)?
A: 1.7%

Q: What about the “Ki α7” value (α7 nAChR; class symbol) of the same compound?
A: NA ^4 (NA: not active, defined as < 50% binding in the primary assay at 10 μmol/L)

Q: And the pKi (α7 nAChR; read-out: Ki α7-nAChRs)?
A: < 5.00

Q: And the inhibition at 10 µM (β2 adrenergic receptor)?
A: 6.8%

Q: What about the “Remaining (metabolic stability)” value [3] of the same compound?
A: 92%

Q: What about the “Inhibition (primary binding competition efficacy), mGluR5” value (mGluR5) of the same compound?
A: 6.6%
